Data as given in patent US20130122085A1, “PHARMACEUTICAL COMPOSITIONS OF SELECTIVE ANDROGEN RECEPTOR MODULATORS AND METHODS OF USE THEREOF” (priority 2011, published 2013).

Key:
[1] = system: ovariectomized female rats; test: Delivery system study: lean body mass and serum HDL in OVX rats; type: in vivo, rat; conditions: 14 days, 0.13 mg/kg/day constant rate subcutaneous infusion (Alzet pump) vs daily subcutaneous injection
Experimental: Female rats were ovariectomized and randomized by body weight into groups of 10. Treatment groups included: (1) 3 mg/kg/day DHT administered daily via subcutaneous injection, (2) 0.13 mg/kg/day S-I administered daily via subcutaneous injection, and (3) 0.13 mg/kg/day S-I administered at a constant rate via subcutaneous infusion by an Alzet pump. Baseline measurements of fasting serum HDL as determined by enzymatic assay were performed via retroorbital blood draw for all animals. Baseline lean body mass (LBM) as determined by magnetic resonance was determined for all animals. After 14 days of treatment, changes from baseline in lean body mass (Δ LBM) and fasting serum HDL (Δ HDL) were determined and represented as a percentage of DHT treated animals.

[2] = Exposure of S-I in female rats; type: in vivo, rat
Experimental: The exposure of S-I in female rats was AUCinf of 147,000 ng*hr/ml following a single 10 mg per kg IV dose. With the reasonable assumption that the SC Alzet pump dose was completely absorbed, a 0.13 mg per kg dose should result in an exposure of −1911 ng*hr/mL in rats. […] In other words, the 0.13 mg per kg per day Alzet dose in rats is equivalent to a 10 mg per day continuous release dose in humans, such as might be accomplished by a mechanical or osmotic pump, or transdermal patch, or the like.

[3] = Steady-state exposure in healthy young men (G100402, MAD); conditions: male, human, in vivo, 10 mg daily doses
[4] = system: patients with cancer; test: Phase II double-blind, placebo-controlled study in cancer patients with weight loss; type: in vivo, human; conditions: 3 mg dose, 4 months
Experimental: A Phase II double-blind, placebo-controlled study was performed with patients with cancer that had experienced at least a 2% total body weight loss in the 6 months prior to the study. The subjects received S-I or matching placebo for 4 months. In this study, no exercise program was mandated and no diet control or monitoring was conducted. The primary endpoint of this study was total lean body mass. The key secondary endpoint of this study was physical function (stair climb speed and power).

C[C@](O)(COc1ccc(C#N)cc1)C(=O)Nc1ccc(C#N)c(C(F)(F)F)c1 [Compound S-I, (S)—N-(4-cyano-3-(trifluoromethyl)phenyl)-3-(4-cyanophenoxy)-2-hydroxy-2-methylpropanamide]
change from baseline in fasting serum HDL (Δ HDL) [1]: smaller decrease in serum HDL | change from baseline in lean body mass (Δ LBM) [1]: larger increase in LBM than daily subcutaneous injections | AUC(0-inf) ([2]; rat, in vivo, 10 mg/kg, female rats, single 10 mg per kg IV dose): 147000 ng·h/mL | exposure expected at 0.13 mg per kg dose ([2]; rats, SC Alzet pump dose assumed completely absorbed, extrapolated from 10 mg per kg IV): -1911 ng·h/mL | AUC(0-t) [3]: 1750 ng·h/mL | power subjects were able to exert climbing 12 steps ([4]; p=0.001 compared to baseline, p=0.058 compared to placebo): statistically significant increase | time it took the subjects to climb 12 steps ([4]; p=0.007 compared to baseline, p=0.028 compared to placebo): statistically significant decrease | total lean body mass ([4]; p=0.015 compared to placebo, p=0.020 compared to baseline): statistically significant increase
